Experimental data reported in patent US20240132475A1, “SUBSTITUTED PYRAZOLYL COMPOUNDS AS MALT-1 INHIBITORS” (AURIGENE ONCOLOGY LIMITED, priority 2021, published 2024).

Biological target: T1, MALT-1 (Isoform 1) (Homo sapiens, UniProt Q9UDY8)
T1 construct: using recombinant MALT-1 (Isoform 1, aa-840) generated in house; made in house
T1 sequence (Q9UDY8 1-824): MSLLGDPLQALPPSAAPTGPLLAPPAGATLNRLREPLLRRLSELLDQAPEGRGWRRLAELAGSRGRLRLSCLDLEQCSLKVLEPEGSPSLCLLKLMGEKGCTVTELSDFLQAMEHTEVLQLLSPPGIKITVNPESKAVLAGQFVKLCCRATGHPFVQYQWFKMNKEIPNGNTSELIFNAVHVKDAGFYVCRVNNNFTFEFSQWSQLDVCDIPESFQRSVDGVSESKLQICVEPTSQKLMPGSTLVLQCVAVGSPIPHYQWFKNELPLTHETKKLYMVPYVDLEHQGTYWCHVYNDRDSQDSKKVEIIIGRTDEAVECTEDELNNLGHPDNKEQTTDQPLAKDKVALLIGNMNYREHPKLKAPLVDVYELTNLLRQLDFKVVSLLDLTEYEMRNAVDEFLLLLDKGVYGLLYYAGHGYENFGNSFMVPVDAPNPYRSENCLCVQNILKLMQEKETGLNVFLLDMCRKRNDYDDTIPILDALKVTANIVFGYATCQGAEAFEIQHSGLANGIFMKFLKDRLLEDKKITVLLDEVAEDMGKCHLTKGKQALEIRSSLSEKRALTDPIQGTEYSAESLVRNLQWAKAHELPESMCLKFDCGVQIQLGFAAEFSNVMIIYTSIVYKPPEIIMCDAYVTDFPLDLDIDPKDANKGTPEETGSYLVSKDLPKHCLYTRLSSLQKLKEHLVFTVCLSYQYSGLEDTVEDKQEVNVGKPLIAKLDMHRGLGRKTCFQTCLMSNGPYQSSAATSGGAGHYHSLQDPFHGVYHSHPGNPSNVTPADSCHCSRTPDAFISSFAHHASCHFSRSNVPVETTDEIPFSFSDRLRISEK
Assay: MALT-1 (Isoform 1) enzyme fluorescent biochemical assay
Details: for IC50: dose-response, sigmoidal curve fit, reported as groups A, B, C; for inhibition at 1 µM: test compound 1 μM, recombinant MALT-1 1.5 nM, read-out: Percent Inhibition (1 μM)
Method: The potency of compounds to inhibit MALT-1 (Isoform 1) enzyme was tested in a Fluorescent assay using recombinant MALT-1 (Isoform 1, aa-840) generated in house. The assay buffer was 50 mM HEPES (pH 7.5), 100 mM NaCl, 10 mM DTT, 1 mM EDTA, 0.9 M sodium citrate, 0.01% CHAPS. 1.5 nM of MALT-1 enzyme was incubated with test compounds ([…]) (1% DMSO) in the presence of buffer for 30 minutes at 30° C. The protease reaction was initiated by adding […] of AC-LRSR-MAC (Peptide International, USA) substrate and incubated for 240 min. After 240 min incubation, fluorescence emission of the samples at 460 nm was measured at an excitation of 355 nm. The percent inhibition was calculated using the following formula: […]. IC50 values were determined by fitting the dose-response data to sigmoidal curve fitting equation using Graph pad prism software V8.
ND represents Not Determined.

| SMILES | IC50 | inhibition at 1 µM |
| --- | --- | --- |
| CC(c1ccccc1)n1ncc(C(=O)Nc2cnc(-n3nccn3)c(C#N)c2)c1C(F)(F)F (racemic) [Compound 2, N-(5-cyano-6-(2H-1,2,3-triazol-2-yl)pyridin-3-yl)-1-(1-phenylethyl)-5-(trifluoromethyl)-1H-pyrazole-4-carboxamide] | < 250 nM | 96% |
| O=C(Nc1cnc(-n2nccn2)c(Cl)c1)c1cnn(Cc2cccc(F)c2)c1C(F)(F)F [Compound 25, N-(5-chloro-6-(2H-1,2,3-triazol-2-yl)pyridin-3-yl)-1-(3-fluorobenzyl)-5-(trifluoromethyl)-1H-pyrazole-4-carboxamide] | < 250 nM | 100% |
| CC(c1cccc(C#N)c1)n1ncc(C(=O)Nc2cnc(-n3nccn3)c(C#N)c2)c1C(F)(F)F (stereo not drawn) [Compound 50, N-(5-cyano-6-(2H-1,2,3-triazol-2-yl)pyridin-3-yl)-1-(1-(3-cyanophenyl)ethyl)-5-(trifluoromethyl)-1H-pyrazole-4-carboxamide] | < 250 nM | 65% |
| N#Cc1cc(NC(=O)c2cnn(Cc3ccccc3)c2C(F)(F)F)cnc1-n1nccn1 [Compound 7, 1-benzyl-N-(5-cyano-6-(2H-1,2,3-triazol-2-yl)pyridin-3-y1)-5-(trifluoromethyl)-1H-pyrazole-4-carboxamide] | 251 to 1000 nM | 88% |
| N#Cc1cc(NC(=O)c2cnn(Cc3ccc(F)c(Cl)c3)c2C(F)(F)F)cnc1-n1nccn1 [Compound 21, 1-(3-chloro-4-fluorobenzy1)-N-(5-cyano-6-(2H-1,2,3-triazol-2-yl)pyridin-3-yl)-5-(trifluoromethyl)-1H-pyrazole-4-carboxamide] | > 1000 nM | 23% |
| CCC(c1cccc(F)c1)n1ncc(C(=O)Nc2cnc(-n3nccn3)c(C#N)c2)c1C(F)(F)F (stereo not drawn) [Compound 6, N-(5-cyano-6-(2H-1,2,3-triazol-2-yl)pyridin-3-y1)-1-(1-(3-fluorophenyl)propyl)-5-(trifluoromethyl)-1H-pyrazole-4-carboxamide] | 251 to 1000 nM | 81% |
| N#Cc1cc(NC(=O)c2cnn(Cc3ccc(Cl)cc3)c2C(F)(F)F)cnc1-n1nccn1 [Compound 9, 1-(4-chlorobenzyl)-N-(5-cyano-6-(2H-1,2,3-triazol-2-y1)pyridin-3-yl)-5-(trifluoromethyl)-1H-pyrazole-4-carboxamide] | 251 to 1000 nM | 55% |
| O=C(Nc1cncc(C(F)(F)F)c1)c1cnn(Cc2cccc(F)c2Cl)c1C(F)(F)F [Compound 42, 1-(2-chloro-3-fluorobenzyl)-5-(trifluoromethyl)-N-(5-(trifluoromethyl)pyridin-3-yl)-1H-pyrazole-4-carboxamide] | 251 to 1000 nM | 71% |
| Cc1c(F)cccc1Cn1ncc(C(=O)Nc2cnc(-n3nccn3)c(C(F)(F)F)c2)c1C(F)(F)F [Compound 31, N-(6-(2H-1,2,3-triazol-2-y1)-5-(trifluoromethyl)pyridin-3-y1)-1-(3-fluoro-2-methylbenzy1)-5-(trifluoromethyl)-1H-pyrazole-4-carboxamide] | < 250 nM | 95% |
| Cc1c(F)cccc1Cn1ncc(C(=O)Nc2cnc(-n3nccn3)c(C#N)c2)c1C(F)(F)F [Compound 26, N-(5-cyano-6-(2H-1,2,3-triazol-2-yl)pyridin-3-y1)-1-(3-fluoro-2-methylbenzyl)-5-(trifluoromethyl)-1H-pyrazole-4-carboxamide] | < 250 nM | 100% |
| O=C(Nc1cc(C(F)(F)F)cnn1)c1cnn(Cc2cccc(F)c2Cl)c1C(F)(F)F [Compound 43, 1-(2-chloro-3-fluorobenzyl)-5-(trifluoromethyl)-N-(5-(trifluoromethyl)pyridazin-3-y1)-1H-pyrazole-4-carboxamide] | > 1000 nM | 13% |
| N#Cc1cc(NC(=O)c2cnn(Cc3cc(F)cc(F)c3)c2C(F)(F)F)cnc1-n1nccn1 [Compound 36, N-(5-cyano-6-(2H-1,2,3-triazol-2-y1)pyridin-3-yl)-1-(3,5-difluorobenzyl)-5-(trifluoromethyl)-1H-pyrazole-4-carboxamide] | 251 to 1000 nM | 86% |
